# Measured values: patent US5620676A, “Biologically active ATP analogs” (priority 1995, dated 1997)
# “Also recorded” adds a separate entry of the source.
# Legend:
# [1] = biological target: T1, P2X receptor (urinary bladder) (Cavia porcellus, UniProt A0A286XVA9); experiment: Contraction of guinea pig isolated urinary bladder detrussor muscle; settings: for activity/potency in words, bladder: guinea pig urinary bladder
# T1 construct: guinea pig isolated urinary bladder detrussor muscle; from tissue; host or cells: guinea pig isolated urinary bladder detrusor muscle
# Method: In FIG. 14, the x-axis is also marked in units of the negative log of the molar concentration of applied putative P2Y receptor agonists and the y-axis is marked in units of the percentage relaxation of the 1 μM noradrenalin-induced contraction of rabbit aorta endothelium. In FIGS. 15-16, the x-axis is marked in units of the negative log of the molar concentration of applied putative p^2X receptor agonists and the y-axis is marked in units of the percentage contraction relative to a standard dose of KCl (i.e., 60 mM), as assessed in guinea pig isolated urinary bladder detrussor muscle (FIG. 15) and guinea pig isolated vas deferens (FIG. 16).
# [2] = biological target: T2, adenylyl cyclase linked P2Y receptor (C6 rat glioma cells) (Rattus norvegicus, UniProt Q9EPX4); experiment: Inhibition of adenylyl cyclase in C6 rat glioma cells; format: cell-based; settings: for selectivity for the adenylyl cyclase linked (C6 cell) receptor: versus phospholipase C linked turkey erythrocyte receptor
# T2 construct: endogenous in cells; host or cells: C6 rat glioma cells
# Summary of the method: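 C6 cells labelled 2 h with [3H]adenine, preincubated 10 min at 37 °C in HEPES-buffered Eagle's medium (pH 7.5) with 200 μM IBMX. Stimulated 10 min with 10 μM isoproterenol plus varied nucleotide concentrations. Stopped with ice-cold 5% trichloroacetic acid.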
# P2Y receptors = experiment: Overall activity in P2Y receptor systems
# Method: Phospholipase C activity: Stimulation of inositol phosphate formation by compounds of the present invention was measured in turkey erythrocyte membranes as described by Harden et al., supra and Boyer et al., supra. The K0.5 values were averaged from 3-8 independently determined dose-response curves for each compound. Briefly, one ml of washed turkey erythrocytes was incubated in inositol-free medium (DMEM; Gibco) with 0.5-1 mCi of 2-[^3 H]myoinositol (20 Ci/mmol; American Radiolabeled Chemicals Inc., St. Louis, Mo.)for 18-24 h in a humidified atmosphere of 95% air 5% CO2 at 37° C. Erythrocyte ghosts were prepared by rapid lysis in hypotonic buffer (5 mM sodium phosphate, pH 7.4, 5 mM MgCl2, 1 mM EGTA) as described by Boyer et al., supra. Phospholipase C activity was measured in 25 μl of [^3 H]inositol-labeled ghosts (≈175 μg of protein, 200-500,000 cpm/assay) in a medium containing 424 μM CaC12, 0.91 mM MgSO4, 2 mM EGTA, 115 mM KCl, 5 mM KH2 PO4, and 10 mM Hepes, pH 7.0. Assay (100 μl or 200 μl final volume) contained 1 μM GTPγS and the indicated concentrations of nucleotide analogs. Ghosts were incubated at 30° C. for 5 min, and total [^3 H]inositol phosphates were quantitated after purification by anion exchange chromatography according to Harden et al. (supra) and Boyer et al. (supra).
# Muscular relaxation/contraction: Relaxant responses mediated via P2Y receptors were examined in guinea pig taenia coli, rabbit aorta, and rabbit mesenteric artery, as described by Hoyle et al. (Br. J. Pharmacol., 107, 367-374 (1992a)), Burnstock et al., (Br. J. Pharmacol., 90, 383-391 (1987a)), and Rubino et al., (Eur. J. Pharmacol., 212, 237-240 (1992)). Contractile responses mediated via P2X receptors were examined in the guinea pig urinary bladder and vas deferens, and rabbit saphenous artery, also using standard methods (see Hoyle et al., supra., 1992; Hoyle et al., Br. J. Pharmacol., 99, 617-621 (1990); and Burnstock et al., Br. J. Pharmacol., 90, 111-120 (1987b)).
# [3] = system: P2X receptor (rat urinary bladder membranes); experiment: Displacement of [3H]-α,β-methylene-ATP from rat urinary bladder membranes; format: binding; settings: about 10 nM [3H]-α,β-MeATP
# Method: Certain ATP analogs known to bind to P2Y receptors, as disclosed in Examples 4-9, were tested on membrane preparations of urinary bladder, which is known to include P2X receptors (See, e.g., Lukacsko et al., Eur. J. Pharmacol., 80, 401-406 (1982)). The assay used is predicated on the specific displacement of […] known to bind at the P2X receptor, namely α,β-methylene-ATP.
# For this assay, male Wistar rats (200-250 g) were killed by asphyxiation with CO2. […] The pellets were washed and suspended in buffer A and the protein content was determined using the method of Peterson (Anal. Biochem., 83, 346-356 (1977)).
# Displacement experiments were carried out by incubating the membrane preparations with about 10 nM [^3 H]-α,β-MeATP and various concentrations of an unlabeled ligand in buffer A at 4° C. for 120 min (final volume 0.5 ml). […] The filters were washed with 2 aliquots of 5 ml ice-cold 5 mM Tris/HCl buffer, pH 7.4, dried under an infrared lamp, and then the radioactivity trapped in the filters was measured in a Beckman SC6100 I scintillation counter with an efficiency of about 56 to 61%. Non-specific binding was determined by including 100 μM β,γ-methylene-ATP in the incubation mixture.
# [4] = listed as 2-(6-cyanohexyl)thio ATP
# [5] = listed as 2-(6-cyanohexylthio)-ATP
# T1 sequence (A0A286XVA9 entry or part of it): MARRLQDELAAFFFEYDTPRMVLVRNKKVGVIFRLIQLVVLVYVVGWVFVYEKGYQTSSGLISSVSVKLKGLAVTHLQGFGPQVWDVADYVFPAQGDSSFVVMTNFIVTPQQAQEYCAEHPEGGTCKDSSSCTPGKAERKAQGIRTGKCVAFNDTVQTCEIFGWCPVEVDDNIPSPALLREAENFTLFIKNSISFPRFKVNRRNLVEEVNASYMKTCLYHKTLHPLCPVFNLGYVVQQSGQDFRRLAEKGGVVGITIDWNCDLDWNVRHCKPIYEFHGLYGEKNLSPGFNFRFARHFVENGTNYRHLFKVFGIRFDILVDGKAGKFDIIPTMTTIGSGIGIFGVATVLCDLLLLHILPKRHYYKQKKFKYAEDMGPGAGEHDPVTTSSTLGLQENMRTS
# T2 sequence (Q9EPX4 whole entry): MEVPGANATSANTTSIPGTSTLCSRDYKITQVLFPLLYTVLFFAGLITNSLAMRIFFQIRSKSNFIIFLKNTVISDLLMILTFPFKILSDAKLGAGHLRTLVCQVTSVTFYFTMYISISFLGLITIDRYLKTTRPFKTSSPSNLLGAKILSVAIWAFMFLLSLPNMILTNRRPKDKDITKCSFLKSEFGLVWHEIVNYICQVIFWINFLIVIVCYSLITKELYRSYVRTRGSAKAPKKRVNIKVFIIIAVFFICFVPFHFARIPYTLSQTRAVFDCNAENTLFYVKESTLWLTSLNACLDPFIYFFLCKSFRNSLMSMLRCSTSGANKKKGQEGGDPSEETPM
Structure (SMILES),"activity/potency in words, bladder [1]","times more potent than ATP, bladder ([1]; guinea pig urinary bladder P2X receptors)","activity/potency in words, bladder [1, 4]","activity/potency in words, bladder ([1]; listed as 2-(6-cyanohexyl)thio-ATP)","activity/potency in words, bladder [1, 5]",selectivity for the adenylyl cyclase linked (C6 cell) receptor [2],"overall activity in words, P2Y systems (P2Y receptors; [4])","overall activity in words, P2Y systems (P2Y receptors; [5])","IC50 ([2]; C6 rat glioma cells, 10 μM isoproterenol, read-out: K0.5 values (in nM) for inhibition of adenylyl cyclase in C6 cells)",P2X binding in words [3]
"N#CCCCCCCSc1nc(N)c2ncn([C@@H]3O[C@H](COP(=O)(O)OP(=O)(O)OP(=O)(O)O)[C@@H](O)[C@H]3O)c2n1 [2-(6-Cyanohexylthio)-ATP, 2-(6-Cyanohexylthio)adenosine-5'-triphosphate]",it produced tonic contractions rather than the phasic; also recorded: much less potent than ATP under the same conditions,approximately 100 times,produced tonic contractions rather than the typical phasic contractions of ATP,"produced contractions that were less tonic, and with a lower potency than ATP under the same conditions",potent agonists in the vas deferens and urinary bladder,3.9 -fold,by far the most potent agonist in several P2Y receptor preparations,the most potent compound in all of the P2Y receptor assays; also recorded: nanomolar potency,–,–
"C=CCCCCSc1nc(NC)c2ncn([C@@H]3O[C@H](COP(=O)(O)OP(=O)(O)OP(=O)(O)O)[C@@H](O)[C@H]3O)c2n1 [N^6 -Me-2-(5-hexenyl)-thio-ATP, N^6 -Me-2-(5-hexenylthio)adenosine 5'-triphosphate]",–,–,–,–,–,81 -fold,–,–,0.32 nM,two orders of magnitude greater concentration
